Experimental data reported in patent US8168792B2, “Heterocyclic antiviral compounds” (Roche Palo Alto LLC, priority 2009, dated 2012).

Tests used:
[1] = target: T1, HCV polymerase (NS5B570n-Con1) (Hepatitis C virus genotype 1b, UniProt Q9WMX2); experiment: HCV NS5B RNA polymerase activity (incorporation of radiolabeled nucleotide into RNA); format: biochemical, HCV Con1 strain
T1 construct: contains a 21 amino acid deletion at the C-terminus relative to the full-length HCV polymerase; 6-histidine (N); made in house; host or cells: E. coli BL21(DE) pLysS, plasmid pET17b
Method: The enzymatic activity of HCV polymerase (NS5B570n-Con1) was measured as the incorporation of radiolabeled nucleotide monophosphates into acid insoluble RNA products. Unincorporated radio labeled substrate was removed by filtration and scintillant was added to the washed and dried filter plate containing radio labeled RNA product. The amount of RNA product generated by NS5B570-Con1 at the end of the reaction was directly proportional to the amount of light emitted by the scintillant.
The N-terminal 6-histidine tagged HCV polymerase, derived from HCV Con1 strain, genotype 1b (NS5B570n-Con1) contains a 21 amino acid deletion at the C-terminus relative to the full-length HCV polymerase and was purified from E. coli strain BL21(DE) pLysS. The construct, containing the coding sequence of HCV NS5B Con1 (GenBank accession number AJ242654) was inserted into the plasmid construct pET17b, downstream of a T7 promoter expression cassette and transformed into E. coli. A single colony was grown overnight as a starter culture and later used inoculate 10 L of LB media supplemented with 100 μg/mL ampicillin at 37° C. Protein expression was induced by the addition of 0.25 mM isopropyl-β-D-thiogalactopyranoside (IPTG) when optical density at […] of the culture was between 0.6 and 0.8 and cells were harvested after 16 to 18 h at 30° C. NS5B570n-Con1 was purified to homogeneity using a three-step protocol including subsequent column chromatography on Ni-NTA, SP-Sepharose HP and Superdex 75 resins.
Each 50 μl enzymatic reaction contained 20 nM RNA template derived from the complementary sequence of the Internal Ribosome Entry Site (cIRES), 20 nM NS5B570n-Con1 enzyme, 0.5 μCi of tritiated UTP (Perkin Elmer catalog no. TRK-412; specific activity: 30 to 60 Ci/mmol; stock solution concentration from 7.5×10^-5 M to 20.6×10^-6 M), 1 μM each ATP, CTP, and GTP, 40 mM Tris-HCl pH 8.0, 40 mM NaCl, 4 mM DTT (dithiothreitol), 4 mM MgCl2, and 5 μl of compound serial diluted in DMSO. Reaction mixtures were assembled in 96-well filter plates (cat #MADVN0B, Millipore Co.) and incubated for 2 h at 30° C. Reactions were stopped by addition of 10% final (v/v) trichloroacetic acid and incubated for 40 min at 4° C. Reactions were filtered, washed with 8 reaction volumes of 10% (v/v) trichloroacetic acetic acid, 4 reaction volumes of 70% (v/v) ethanol, air dried, and 25 μl of scintillant (Microscint 20, Perkin-Elmer) was added to each reaction well.
The amount of light emitted from the scintillant was converted to counts per minute (CPM) on a Topcount® plate reader (Perkin-Elmer, Energy Range: Low, Efficiency Mode Normal, Count Time: 1 min, Background Subtract: none, Cross talk reduction: Off).
Data was analyzed in Excel® (Microsoft) and ActivityBase® (Idbs®). The reaction in the absence of enzyme was used to determine the background signal, which was subtracted from the enzymatic reactions. Positive control reactions were performed in the absence of compound, from which the background corrected activity was set as 100% polymerase activity. All data was expressed as a percentage of the positive control. The compound concentration at which the enzyme-catalyzed rate of RNA synthesis was reduced by 50% (IC50) was calculated by fitting
[formula] equation (i) to the data where “Y” corresponds to the relative enzyme activity (in %), “% Min” is the residual relative activity at saturating compound concentration, “% Max” is the relative maximum enzymatic activity, “X” corresponds to the compound concentration, and “S” is the Hill coefficient (or slope).

HCV = settings: monotherapy / sole treatment; cited from earlier work
[2] = system: HCV replicon (genotype 1b, cell line 2209-23); experiment: HCV replicon assay (Renilla luciferase reporter); format: cell-based, HCV genotype 1b; settings: Hepatitis C virus, 72 h; three days incubation, luciferase readout
in vitro = settings: human

Row | SMILES | melting point | IC50 [1] | serum levels of HCV-RNA (HCV) | IC50 [2] | CC50 at 3 days (in vitro)
1 | CC(C)(C)c1cc(-c2ccc[nH]c2=O)c2[nH]c(=O)ccc2c1 [Compound I-2] | > 300 °C | 332 nM |  |  | 
2 | Cn1c(=O)c(-c2ccc(O)cc2)cc2cc(C(C)(C)C)cc(-c3ccc[nH]c3=O)c21 [Compound I-7] | > 300 °C | 900 nM |  |  | 
3 | CC(C)(C)c1cc(-c2ccc[nH]c2=O)c2[nH]c(=O)c(-c3ccc(NS(C)(=O)=O)cc3)cc2c1 [Compound I-9] | > 300 °C | 5 nM |  |  | 
4 | CC(C)(C)c1cc(-c2ccc[nH]c2=O)c2oc(=O)c(-c3ccc(N)cc3)cc2c1 [Compound I-3] | > 300 °C | 34 nM |  |  | 
5 | CC(C)(C)c1cc(-c2ccc[nH]c2=O)c2[nH]c(=O)c(-c3ccc(S(N)(=O)=O)cc3)cc2c1 [Compound I-11] | 250 to 252 °C | 46 nM |  |  | 
6 | CC(C)(C)c1cc(-c2ccc[nH]c2=O)c2oc(=O)ccc2c1 [Compound I-1, 3-(6-tert-Butyl-2-oxo-2H-chromen-8-yl)-1H-pyridin-2-one] | > 300 °C | 1530 nM |  |  | 
7 | CC(C)(C)c1cc(-c2ccc[nH]c2=O)c2c(=O)oc(-c3ccc(NS(C)(=O)=O)cc3)cc2c1 [Compound I-15, N-{4-[6-tert-Butyl-1-oxo-8-(2-oxo-1,2-dihydro-pyridin-3-yl)-1H-isochromen-3-yl]-phenyl}methanesulfonamide] |  | 8 nM |  |  | 
8 | CC(C)(C)c1cc2c(c(-c3ccc[nH]c3=O)c1)OC(O)C(c1ccc(NS(C)(=O)=O)cc1)C2 (stereo not shown) [Compound I-18, N-{4-[6-tert-Butyl-2-hydroxy-8-(2-oxo-1,2-dihydro-pyridin-3-yl)-chroman-3-yl]-phenyl}-methanesulfonamide] | 228 to 230 °C | 7 nM |  |  | 
9 | Cn1c(=O)c(-c2ccc(S(N)(=O)=O)cc2)cc2cc(C(C)(C)C)cc(-c3ccc[nH]c3=O)c21 [Compound I-12] | > 300 °C | 2370 nM |  |  | 
10 | Cn1c(=O)c(-c2ccc(NS(C)(=O)=O)cc2)cc2cc(C(C)(C)C)cc(-c3ccc[nH]c3=O)c21 [Compound I-8, N-{4-[6-tert-Butyl-1-methyl-2-oxo-8-(2-oxo-1,2-dihydro-pyridin-3-yl)-1,2-dihydro-quinolin-3-yl]-phenyl}-methanesulfonamide] | > 300 °C | 6 nM |  |  | 
11 | CC(C)(C)c1cc(-c2ccc[nH]c2=O)c2c(=O)[nH]c(-c3ccc(NS(C)(=O)=O)cc3)cc2c1 [Compound I-14, N-{4-[6-tert-Butyl-1-oxo-8-(2-oxo-1,2-dihydro-pyridin-3-yl)-1,2-dihydro-isoquinolin-3-yl]-phenyl}-methanesulfonamide] | > 300 °C | 16 nM |  |  | 
12 | NC(=O)c1ncn([C@@H]2O[C@H](CO)[C@@H](O)[C@H]2O)n1 [ribavirin, 1-((2R,3R,4S,5R)-3,4-Dihydroxy-5-hydroxymethyl-tetrahydro-furan-2-yl)-1H-[1,2,4]triazole-3-carboxylic acid amide] |  |  | does not lower serum levels of HCV-RNA |  | 
13 | CC(C)(C)c1cc(-c2ccc[nH]c2=O)c2oc(=O)c(-c3ccc(NS(C)(=O)=O)cc3)cc2c1 [Compound I-5, N-{4-[6-tert-Butyl-2-oxo-8-(2-oxo-1,2-dihydro-pyridin-3-yl)-2H-chromen-3-yl]-phenyl}-methanesulfonamide] | 225 to 227 °C | 5 nM |  | 10 nM | 95100 nM
14 | Cn1c(=O)c(-c2ccccc2)cc2cc(C(C)(C)C)cc(-c3ccc[nH]c3=O)c21 [Compound I-6] | 290 to 292 °C | 456 nM |  |  | 
15 | CC(C)(C)c1cc(-c2ccc[nH]c2=O)c2[nH]c(=O)c(-c3cccc(NS(C)(=O)=O)c3)cc2c1 [Compound I-10, N-{3-[6-tert-Butyl-2-oxo-8-(2-oxo-1,2-dihydro-pyridin-3-yl)-1,2-dihydro-quinolin-3-yl]-phenyl}-methanesulfonamide] | 233 to 235 °C | 531 nM |  |  | 
16 | CC(C)(C)c1cc(-c2ccc[nH]c2=O)c2[nH]c(=O)c(-c3ccccc3)cc2c1 [Compound I-4] | 200 to 202 °C | 91 nM |  |  | 
17 | CC(C)(C)c1cc(-c2ccc[nH]c2=O)c2[nH]c(=O)c(-c3cccc(C(N)=O)c3)cc2c1 [Compound I-13] | 255 to 257 °C | 36 nM |  |  | 
